Drawing on US11103519B2, “Quinone-methide precursors with bodipy chromophore, method of preparation, biological activity and application in fluorescent labelling” (Rudjer Boskovic Institute, priority 2016, dated 2021), this text covers IC50 for three substances.

Read-outs that look alike come from different tables or passages of the source.

Experiment [1] deals with HCT 116 (colon carcinoma). Particulars: read-out: IC50, the concentration that causes 50% growth inhibition, HCT116, 72 h incubation, MTT. The method, then:
The described assay was used to test the effects of test compounds on the proliferation of various human tumor cell lines, whereby cytostatic and cytotoxic effects on cells can be differentiated. The experiments were carried out on human cell lines, which were derived from 3 tumor types: MCF-7 (breast carcinoma), HCT 116 (colon carcinoma), H 460 (lung carcinoma).
Cell lines were cultured as monolayers and maintained in Dulbecco's modified Eagle medium (DMEM), supplemented with 10% fetal bovine serum (FBS), 2 mM L-glutamine, 100 U/ml penicillin and 100 μg/ml streptomycin in a humidified atmosphere with 5% CO2 at 37° C.
The cell lines were inoculated onto a series of standard 96-well microtiter plates on day 0, at 1×10^4 to 3×10^4 cells/ml, depending on the doubling times of the specific cell line. Test compounds were added next day to the cell lines in five consecutive 10-fold dilutions (10^−8 to 10^−4 M) and incubated for a further 72 hours. Working dilutions were freshly prepared on the day of testing. The solvent (DMSO) was also tested for eventual inhibitory activity by adjusting its concentration to be the same as in working concentrations.
For each cell line one of the plates was left in the dark, while the other was irradiated in a Luzchem reactor (6 lamps 350 nm, 5 min; or 6 lamps 420 nm, 15 min, visible light, 15 min) four hours after the addition of the test compounds and subsequently 24 h and 48 h after the first irradiation, as described above. After 72 hours of incubation the cell growth rate was evaluated by performing the MTT assay (Mossman, Methods Immunol, 1983, 65, 55-63), which detects dehydrogenase activity in viable cells. The MTT Cell Proliferation Assay is a colorimetric assay system, which measures the reduction of a tetrazolium component (MTT) into an insoluble formazan produced by mitochondria of viable cells. For this purpose the substance treated medium was discarded and MTT was added to each well in concentration of 20 μg/40 μl. After four hours of incubation the precipitates were dissolved in 160 μl of dimethylsulphoxide (DMSO). The absorbance (OD, optical density) was measured on a microplate reader at 570 nm. The absorbance is directly proportional to the cell viability. The percentage of growth (PG) of the cell lines was calculated according to one of the following two equations (according to the National Cancer Institute protocols, www.dtp.nci.nih.gov):
If (mean ODtest-mean ODtzero)≥0 then • PG=100×(mean ODtest-mean ODtzero)/(mean ODetrl-meanODtzero).
If (mean ODtest-mean ODtzero)<0 then: • PG=100×(mean ODtest-mean ODtzero)/ODtzero. where:
Mean ODtzero=the average of optical density measurements before exposure of cells to the test compound.
Mean ODtest=the average of optical density measurements after the desired period of time.
Mean ODetrl=the average of optical density measurements after the desired period of time with no exposure of cells to the test compound.
Each test point was performed in quadruplicate in three individual experiments. The results were expressed as IC50, a concentration necessary for 50% of proliferation inhibition. Each result is a mean value from three separate experiments. The IC50 measures the growth inhibitory power of the test agent and represents the concentration that causes 50% growth inhibition. […] Therefore, a “real” value for any of the response parameters is obtained only if at least one of the tested drug concentrations falls above, and likewise at least one falls below the respective reference value. If however, for a given cell line or test agent all of the tested concentrations produce PGs exceeding the respective reference level of effect (e.g. PG value of 50%), then the highest tested concentration is assigned as the default value. In the screening data report the default value is preceded by a “>” sign.

A further experiment relates to MCF-7 (breast carcinoma). The experiment can be described thus: Antiproliferative MTT assay, MCF-7. To be noted: 72 h incubation, read-out: IC50, the concentration that causes 50% growth inhibition. It is filed as cell-based, human. From the text: (§1) The absorbance is directly proportional to the cell viability.
For orientation: Formazan colour is commonly taken as a measure of viable cells.

The next experiment relates to H 460 (lung carcinoma). As to the kind of experiment: Antiproliferative MTT assay, H 460. Format: cell-based, human. Particulars: 72 h incubation, read-out: IC50, the concentration that causes 50% growth inhibition.
Source text: as §1

For “4,4-difluoro-1,5,7-trimethyl-343-(N,N-dimethylammoniummethyl)-4-hydroxyphenyl)-8-phenyl-4-bora-3a,4a-diaza-s-indacene hydrochloride [Example 7]”, the IC50 in experiment [1] (Not irrad.) stood at 27 µM; in experiment [1] (irradiated VIS 3 × 15 min) it was 2 µM; with MCF-7 (breast carcinoma) (Not irrad.), 22 ± 12 µM; in the experiment with MCF-7 (breast carcinoma) (irradiated VIS 3 × 15 min), 2 ± 0.7 µM; in the experiment on H 460 (lung carcinoma) (Not irrad.), 20 ± 5 µM; in the experiment with H 460 (lung carcinoma) (irradiated VIS 3 × 15 min) it was 2 ± 0.7 µM.
As for “4,4-difluoro-8-[3-(N,N-dimethylammoniummethyl)-4-hydroxyphenyl]-4-bora-3a,4a-diaza-s-indacene hydrochloride [Example 2]”, the IC50 in experiment [1] (Not irrad.) is above 100 µM; in experiment [1] (irradiated 350 nm 3 × 5 min), above 100 µM; in experiment [1] (irradiated 420 nm 3 × 15 min), 37 ± 7 µM; in experiment [1] (irradiated VIS 3 × 15 min), 89 ± 6 µM; in the experiment on MCF-7 (breast carcinoma) (Not irrad.) it was at least 100 µM; in the experiment on MCF-7 (breast carcinoma) (irradiated 350 nm 3 × 5 min), at least 100 µM. Besides, the IC50 was 25 ± 6 µM in the experiment with MCF-7 (breast carcinoma) (irradiated 420 nm 3 × 15 min); 32 ± 25 µM in the experiment on MCF-7 (breast carcinoma) (irradiated VIS 3 × 15 min); above 100 µM in the experiment on H 460 (lung carcinoma) (Not irrad.); above 100 µM in the experiment on H 460 (lung carcinoma) (irradiated 350 nm 3 × 5 min); 30 ± 18 µM in the experiment with H 460 (lung carcinoma) (irradiated 420 nm 3 × 15 min); 43 ± 6 µM in the experiment with H 460 (lung carcinoma) (irradiated VIS 3 × 15 min).
Turning to “4,4-difluoro-1,3,5,7-tetramethyl-8-[3-(N,N-dimethylammoniummethyl)-4-hydroxyphenyl]-4-bora-3a,4a-diaza-s-indacene hydrochloride [Example 4]”, the IC50 in experiment [1] (Not irrad.) turned out to be 16 ± 1 µM; in experiment [1] (irradiated 350 nm 3 × 5 min), 11 ± 2 µM; in experiment [1] (irradiated 420 nm 3 × 15 min) it was 2 ± 0.4 µM; in experiment [1] (irradiated VIS 3 × 15 min), 2 ± 0.1 µM; in the experiment with MCF-7 (breast carcinoma) (Not irrad.), 13 ± 0.1 µM; in the experiment with MCF-7 (breast carcinoma) (irradiated 350 nm 3 × 5 min) it was 10 ± 0.6 µM. For the same substance, the IC50 in the experiment on MCF-7 (breast carcinoma) (irradiated 420 nm 3 × 15 min) is 2 ± 0.2 µM; in the experiment with MCF-7 (breast carcinoma) (irradiated VIS 3 × 15 min) it was 1.6 ± 0.01 µM; in the experiment with H 460 (lung carcinoma) (Not irrad.) it was 13 ± 0.2 µM; in the experiment with H 460 (lung carcinoma) (irradiated 350 nm 3 × 5 min) it was 5 ± 3 µM; with H 460 (lung carcinoma) (irradiated 420 nm 3 × 15 min) it was 1 ± 0.1 µM; in the experiment on H 460 (lung carcinoma) (irradiated VIS 3 × 15 min), 0.9 ± 0.2 µM.
